Measurements as given in patent US20140023657A1, “IN VITRO METHOD FOR IDENTIFYING COMPOUNDS FOR CANCER THERAPY” (CONSEJO SUPERIOR DE INVESTIGACIONES CIENTIFICAS, priority 2005, published 2014).
Read-outs that look alike come from different tables or passages of the source.

Assays:
[1] = tested on: MDA-MB-231; settings: MDA-MB-231, previously described; cited from earlier work
[2] = tested on: BEC; test: Antiproliferative effect of ChoK inhibition, primary bronchial epithelial cells; assay type: cell-based, human
Protocol: (§1) First, the mRNA levels corresponding to said enzyme in cell lines derived from patients with lung cancer were detected again by means of automated real-time quantitative PCR reactions with specific Taqman probes. They were carried out both on cell lines corresponding to the most common type of lung cancer (75-85%), non-microcytic or NSCLC (non small cell lung cancer), represented by lines H460 and H1299, and on lines corresponding to the other type of cancer, microcytic or SCLC (small cell lung cancer), represented by lines H510 and H82, the data being represented in logarithmic scale relating to normal primary human bronchial epithelial cells, BEC. […] An increase with respect to the controls, which is particularly considerable in the case of the SCLC lines, especially H510, is observed in all cases.
(§2) The antiproliferative effect of ChoK inhibition in said cell lines caused by the addition of MN58b was also checked, obtaining the results shown in the following Table, in which the numbers between parentheses indicate the sensitivity of each cell compared with the primary cells. The differences between the primary cells and the four cell lines derived from tumors were significant (p:<0.001) in all the analyzed time periods.

[3] = tested on: Ch-ind-1 cells; test: Proliferation of inducible interference line with chemical ChoK inhibitors; assay type: cell-based, human; settings: Ch-ind-1, analogous to parent MDA-MB-231
Description: FIG. 23: Proliferation of MDA-MB-231 (upper row of plaques) and Ch-ind-1 (lower row of plaques) cells in growth permissive conditions (“Control” column? or in the presence of the chemical inhibitors of choline kinase MN58b (middle column) or RSM936 (right column).
FIGS. 23 and 24 show the results obtained in Ch-ind-1 cells, a cell line derived from MDA-MB-231, capable of expressing the interference construction after treatment with the inducing agent doxocycline. […] The genetic inhibition of ChoKα is correlated with a reduction of cell proliferation (determined by pCNA) and an increase of cell death due to apoptosis (determined by PARPdig, degraded PARP protein, which is an indicator of apoptosis). The effect begins to be seen after 10 days, although it is still very initial, and is much more pronounced 20 days after the beginning of the experiment (in which the population has very little ChoKα expression).

[4] = tested on: HEK293T cells transfected with the cka gene; test: Growth of tumors induced by choline kinase alpha overexpression in Nu/Nu mice; assay type: in vivo; settings: 5 mg/Kg intraperitoneally, 5 consecutive days with 9 days of rest
Protocol: Given that tumors have been generated in vivo by overexpressing choline kinase alpha and that MN58b is specific for this isoform, it has been verified if the growth of the tumors induced by ChoKα is susceptible to inhibition by MN58b. […] When the tumors reached a tumor volume of 0.1 cm^3, treatment with the specific choline kinase alpha inhibitor, MN58b, began, which was administered intraperitoneally in sterile physiological serum for 5 consecutive days with 9 days of rest at a dose of 5 mg/Kg. The control mice received equivalent carrier doses, following the same calendar and the tumors were monitored at least twice a week.

[5] = target: T1, recombinant human choline kinase alpha (Homo sapiens, UniProt P35790); test: Enzymatic activity of recombinant choline kinase isoforms in E. coli extracts; assay type: biochemical; settings: recombinant isoforms expressed in E. coli
T1 construct: made in house; host or cells: E. coli
Protocol: FIG. 9: Specificity of the inhibitor MN58b on choline kinase alpha. E. coil extracts in which recombinant human choline kinase alpha or choline kinase beta proteins are expressed were analyzed in the absence (0) or in the presence of increasing concentrations of MN58b.
Once the oncogenic activity of the choline kinase alpha isoform, as well as its high incidence of overexpression in human tumors was verified, it was then studied if the anti-tumor effect of the inhibitor MN58b [Hernández-Alcoceba, R., Saniger, L., Campos, J., Núñdez, M. C., Khaless, F., Gallo, M. Á., Espinosa, A., Lacal, J. C. Oncogene, 15, 2289-2301 (1997); Hernández-Alcoceba, R., Fernández, F., Lacal J. C. Cancer Res. 55, 3112-3118 (1999); Ramirez de Molina A., Bañez-Coronel M., Gutiérrez R., Rodriguez González A., Olmeda D., Megias D., Lacal J. C. Cancer Res. 64:6732-6739 (2004)] is specific for this choline kinase alpha isoform or if, in contrast, it could also be attributed to its possible interaction with the choline kinase beta isoform. This verification is necessary because the two choline kinase alpha and choline kinase beta isoforms share up to 75% homology in the substrate binding domains and in the catalytic region. […]

[6] = tested on: H82; test: Antiproliferative effect of ChoK inhibition, SCLC line; assay type: cell-based, human; settings: for IC50: H82 (SCLC); for sensitivity of the cell compared with the primary cells: number in parentheses
Protocol: as §1, §2

[7] = tested on: H510; test: as above; assay type: cell-based, human; settings: for IC50: H510 (SCLC); for sensitivity of the cell compared with the primary cells: number in parentheses
Protocol: as §1, §2

[8] = tested on: H460; test: Antiproliferative effect of ChoK inhibition, NSCLC line; assay type: cell-based, human; settings: for IC50: H460 (NSCLC); for sensitivity of the cell compared with the primary cells: number in parentheses
Protocol: as §1, §2

[9] = tested on: H1299; test: as above; assay type: cell-based, human; settings: for IC50: H1299 (NSCLC); for sensitivity of the cell compared with the primary cells: number in parentheses
Protocol: as §1, §2

[10] = tested on: HMEC; settings: cited from earlier work
[11] = tested on: HMEC; test: Antiproliferative effect of ChoK inhibition, primary mammary epithelial cells; assay type: cell-based, human
Description: as §2

T1 sequence (P35790 whole entry, canonical isoform): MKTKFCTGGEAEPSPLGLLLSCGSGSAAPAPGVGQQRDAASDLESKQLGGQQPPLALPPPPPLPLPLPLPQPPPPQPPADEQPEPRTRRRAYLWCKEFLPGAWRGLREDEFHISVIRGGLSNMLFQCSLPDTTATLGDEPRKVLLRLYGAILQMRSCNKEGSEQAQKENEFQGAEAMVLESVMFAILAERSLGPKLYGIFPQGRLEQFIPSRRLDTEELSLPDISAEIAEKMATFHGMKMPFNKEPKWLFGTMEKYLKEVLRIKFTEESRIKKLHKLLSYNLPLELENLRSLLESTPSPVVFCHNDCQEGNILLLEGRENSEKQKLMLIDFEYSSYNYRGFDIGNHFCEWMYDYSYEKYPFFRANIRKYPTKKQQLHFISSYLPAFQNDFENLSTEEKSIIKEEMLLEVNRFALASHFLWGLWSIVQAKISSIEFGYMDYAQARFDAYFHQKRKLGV

Substance: MN58b
- anti-tumor effect of pharmacological inhibition of choline kinase [1]: strong anti-tumor effect due to apoptosis induction
- IC50 ([2]; 48 h, read-out: 48 h IC50): 40500 ± 6200 nM
- IC50 ([2]; 72 h, read-out: 72 h IC50): 18300 ± 4800 nM
- IC50 ([2]; 114 h, read-out: 114 h IC50): 4200 ± 800 nM
- sensitivity of proliferation to chemical inhibition of ChoKα [3]: sensitive to the chemical inhibition
- tumor growth reduction [4]: 80%
- times more active against choline kinase alpha than against choline kinase beta [5]: 20 times
- IC50 ([6]; 48 h, read-out: 48 h IC50): 1900 ± 200 nM
- IC50 ([6]; 72 h, read-out: 72 h IC50): 800 ± 40 nM
- IC50 ([6]; 114 h, read-out: 114 h IC50): 270 ± 10 nM
- sensitivity of the cell compared with the primary cells ([6]; H82, 48 h): 24
- sensitivity of the cell compared with the primary cells ([6]; H82, 72 h): 27
- sensitivity of the cell compared with the primary cells ([6]; H82, 114 h): 12
- IC50 ([7]; 48 h, read-out: 48 h IC50): 1100 ± 100 nM
- IC50 ([7]; 72 h, read-out: 72 h IC50): 400 ± 50 nM
- IC50 ([7]; 114 h, read-out: 114 h IC50): 100 ± 30 nM
- sensitivity of the cell compared with the primary cells ([7]; H510, 48 h): 41
- sensitivity of the cell compared with the primary cells ([7]; H510, 72 h): 53
- sensitivity of the cell compared with the primary cells ([7]; H510, 114 h): 27
- IC50 ([8]; 48 h, read-out: 48 h IC50): 7030 ± 2030 nM
- IC50 ([8]; 72 h, read-out: 72 h IC50): 2600 ± 800 nM
- IC50 ([8]; 114 h, read-out: 114 h IC50): 1100 ± 100 nM
- sensitivity of the cell compared with the primary cells ([8]; H460, 48 h): 6
- sensitivity of the cell compared with the primary cells ([8]; H460, 72 h): 8
- sensitivity of the cell compared with the primary cells ([8]; H460, 114 h): 3
- IC50 ([9]; 48 h, read-out: 48 h IC50): 10300 ± 2500 nM
- IC50 ([9]; 72 h, read-out: 72 h IC50): 2700 ± 700 nM
- IC50 ([9]; 114 h, read-out: 114 h IC50): 900 ± 100 nM
- sensitivity of the cell compared with the primary cells ([9]; H1299, 48 h): 4
- sensitivity of the cell compared with the primary cells ([9]; H1299, 72 h): 8
- sensitivity of the cell compared with the primary cells ([9]; H1299, 114 h): 4
- cell fate of primary cells after treatment ([10]; HMEC treated with the inhibitor): cycle-arrested
- effect on the viability of normal primary cells ([10]; HMEC, chemical inhibitor): no effect on the viability
- IC50 ([11]; 48 h, read-out: 48 h IC50): 44700 ± 4950 nM
- IC50 ([11]; 72 h, read-out: 72 h IC50): 20900 ± 2700 nM
- IC50 ([11]; 114 h, read-out: 114 h IC50): 3400 ± 130 nM
